Experimental data as given in ChEMBL document CHEMBL4627364, “Design, synthesis and biological evaluation of novel hybrids of N-aryl pyrrothine-base α-pyrone as bacterial RNA polymerase inhibitors” (Bioorg Med Chem Lett, 2020).
≈ marks a conversion by molar mass, not a printed value.

Columns and labels:
Enterococcus faecalis = test: Antibacterial activity against Enterococcus faecalis ATCC 29212 assessed as bacterial growth inhibition; assay type: functional
[1] = Inhibition of Escherichia coli RNA polymerase
Staphylococcus aureus [2] = test: Antibacterial activity against vancomycin-resistant Staphylococcus aureus assessed as bacterial growth inhibition; assay type: functional
Pseudomonas aeruginosa = test: Antibacterial activity against Pseudomonas aeruginosa ATCC 27853 assessed as bacterial growth inhibition; assay type: functional
Staphylococcus aureus [3] = test: Antibacterial activity against rifampicin-resistant Staphylococcus aureus assessed as bacterial growth inhibition; assay type: functional
Staphylococcus aureus [4] = test: Antibacterial activity against methicillin-resistant Staphylococcus aureus assessed as bacterial growth inhibition; assay type: functional
HepG2 = test: Cytotoxicity against human HepG2 cells assessed as reduction in cell viability by MTT assay; assay type: cell-based
Bacillus subtilis = test: Antibacterial activity against Bacillus subtilis ATCC 6633 assessed as bacterial growth inhibition; assay type: functional
Candida albicans = test: Antifungal activity against Candida albicans ATCC 10231 assessed as fungal growth inhibition; assay type: functional
Escherichia coli [5] = test: Antibacterial activity against Escherichia coli ATCC 25922 assessed as bacterial growth inhibition; assay type: functional
Staphylococcus aureus [6] = test: Antibacterial activity against Staphylococcus aureus ATCC 29213 assessed as bacterial growth inhibition; assay type: functional
Escherichia coli [7] = test: Inhibition of Escherichia coli RNA polymerase at 200 uM relative to control
[8] = Inhibition of recombinant Escherichia coli RNA polymerase

SMILES	MIC (Enterococcus faecalis) [µg/mL]	IC50 [1] [µM]	MIC (Staphylococcus aureus [2]) [µg/mL]	MIC (Pseudomonas aeruginosa) [µg/mL]	MIC (Staphylococcus aureus [3]) [µg/mL]	MIC (Staphylococcus aureus [4]) [µg/mL]	IC50 (HepG2) [µM]	MIC (Bacillus subtilis) [µg/mL]	MIC (Candida albicans) [µg/mL]	MIC (Escherichia coli [5]) [µg/mL]	MIC (Staphylococcus aureus [6]) [µg/mL]	inhibition (Escherichia coli [7]) [%]	IC50 [8] [µM]
COc1ccc(-n2c3cssc-3c(NC(=O)OCCOC(=O)CCCCC(=O)c3c(O)cc(C)oc3=O)c2=O)c(OC)c1	16 (≈ 25.3 µM)	65.9	2 to 4 (≈ 3.16 to 6.32 µM)	> 128	2 to 4 (≈ 3.16 to 6.32 µM)	1 to 2 (≈ 1.58 to 3.16 µM)	9.43	32 (≈ 50.6 µM)	> 128	> 128	2 (≈ 3.16 µM)		
COc1ccc(-n2c3cssc-3c(NC(=O)CCCCCCC(=O)c3c(O)cc(C)oc3=O)c2=O)c(OC)c1	> 128			> 128				32 (≈ 55.9 µM)	> 128	> 128	64 (≈ 112 µM)	43.4	
COc1ccc(-n2c3cssc-3c(NC(=O)N(C)CCOC(=O)CCCCCCC(=O)c3c(O)cc(C)oc3=O)c2=O)c(OC)c1	8 (≈ 11.9 µM)			> 128				32 (≈ 47.5 µM)	> 128	> 64	16 (≈ 23.7 µM)	32.1	
COc1ccc(-n2c3cssc-3c(NC(=O)NCCOC(=O)CCCCC(=O)c3c(O)cc(C)oc3=O)c2=O)c(OC)c1	16 (≈ 25.3 µM)			> 128				128 (≈ 203 µM)	> 128	> 64	4 (≈ 6.33 µM)	36.5	
COc1ccc(-n2c3cssc-3c(NC(=O)CCCCC(=O)c3c(O)cc(C)oc3=O)c2=O)c(OC)c1	64 (≈ 118 µM)			> 128				16 (≈ 29.4 µM)	> 128	> 128	2 (≈ 3.67 µM)	42.4	
CN[C@H](CC(C)C)C(=O)N[C@H]1C(=O)N[C@@H](CC(N)=O)C(=O)N[C@H]2C(=O)N[C@H]3C(=O)N[C@H](C(=O)N[C@H](C(=O)O)c4cc(O)cc(O)c4-c4cc3ccc4O)[C@H](O)c3ccc(c(Cl)c3)Oc3cc2cc(c3O[C@@H]2O[C@H](CO)[C@@H](O)[C@H](O)[C@H]2O[C@H]2C[C@](C)(N)[C@H](O)[C@H](C)O2)Oc2ccc(cc2Cl)[C@H]1O [VANCOMYCIN]			> 64		1 to 2 (≈ 0.69 to 1.38 µM)	1 to 2 (≈ 0.69 to 1.38 µM)		1 (≈ 0.69 µM)		> 128			
COc1ccc(-n2c3cssc-3c(NC(=O)CCCC(=O)c3c(O)cc(C)oc3=O)c2=O)c(OC)c1	16 (≈ 30.2 µM)		4 to 8 (≈ 7.54 to 15.1 µM)	> 128	2 to 4 (≈ 3.77 to 7.54 µM)	1 to 2 (≈ 1.88 to 3.77 µM)	29	32 (≈ 60.3 µM)	> 128	> 64	2 (≈ 3.77 µM)	35.4	
COc1ccc(-n2c3cssc-3c(NC(=O)NCCOC(=O)CCCCCCC(=O)c3c(O)cc(C)oc3=O)c2=O)c(OC)c1	32 (≈ 48.5 µM)	56.3		> 128				128 (≈ 194 µM)	> 128	> 128	128 (≈ 194 µM)		
COc1ccc(-n2c3cssc-3c(NC(=O)N(C)CCOC(=O)CCCC(=O)c3c(O)cc(C)oc3=O)c2=O)c(OC)c1	2 (≈ 3.17 µM)		2 to 4 (≈ 3.17 to 6.33 µM)	> 128	2 to 4 (≈ 3.17 to 6.33 µM)	1 to 2 (≈ 1.58 to 3.17 µM)	5.32	32 (≈ 50.7 µM)	> 128	> 128	2 (≈ 3.17 µM)	23.8	
COc1ccc(-n2c3cssc-3c(NC(=O)N(C)CCOC(=O)CCCCC(=O)c3c(O)cc(C)oc3=O)c2=O)c(OC)c1	16 (≈ 24.8 µM)	45.9	4 to 8 (≈ 6.19 to 12.4 µM)	> 128	1 to 2 (≈ 1.55 to 3.1 µM)	1 to 2 (≈ 1.55 to 3.1 µM)	2.76	32 (≈ 49.6 µM)	> 128	> 128	2 (≈ 3.1 µM)		
O=C(O)c1cn(C2CC2)c2cc(N3CCNCC3)c(F)cc2c1=O [CIPROFLOXACIN]	0.5 (≈ 1.51 µM)							0.125 (≈ 0.377 µM)		0.00625 (≈ 0.0189 µM)	0.078 (≈ 0.235 µM)		
COc1ccc(-n2c3cssc-3c(NC(=O)OCCOC(=O)CCCC(=O)c3c(O)cc(C)oc3=O)c2=O)c(OC)c1	4 (≈ 6.47 µM)		4 to 8 (≈ 6.47 to 12.9 µM)	> 128	1 to 2 (≈ 1.62 to 3.23 µM)	1 to 2 (≈ 1.62 to 3.23 µM)	1.97	32 (≈ 51.7 µM)	> 128	> 128	1 (≈ 1.62 µM)	41.3	
CO[C@H]1/C=C/O[C@@]2(C)Oc3c(C)c(O)c4c(O)c(c(/C=N/N5CCN(C)CC5)c(O)c4c3C2=O)NC(=O)/C(C)=C\C=C\[C@H](C)[C@H](O)[C@@H](C)[C@@H](O)[C@@H](C)[C@H](OC(C)=O)[C@@H]1C [RIFAMPIN]	0.5 (≈ 0.608 µM)	0.14	0.0625 to 0.125 (≈ 0.0759 to 0.152 µM)	> 64	> 64	0.125 to 0.25 (≈ 0.152 to 0.304 µM)	145	0.125 (≈ 0.152 µM)	> 64	8 (≈ 9.72 µM)	0.5 (≈ 0.608 µM)		
CCC/C(C)=C/C=C(\C)C(=O)c1c(O)cc([C@H](C)CC/C=C/NC(=O)OC)oc1=O [MYXOPORIN A]													24
COc1ccc(-n2c3cssc-3c(NC(=O)NCCOC(=O)CCCC(=O)c3c(O)cc(C)oc3=O)c2=O)c(OC)c1	4 (≈ 6.48 µM)			> 128				32 (≈ 51.8 µM)	> 128	> 64	32 (≈ 51.8 µM)	25.3	
COc1ccc(-n2c3cssc-3c(NC(=O)OCCOC(=O)CCCCCCC(=O)c3c(O)cc(C)oc3=O)c2=O)c(OC)c1	2 (≈ 3.03 µM)	16.1	2 to 4 (≈ 3.03 to 6.05 µM)	> 128	1 to 2 (≈ 1.51 to 3.03 µM)	1 to 2 (≈ 1.51 to 3.03 µM)	7.04	32 (≈ 48.4 µM)	> 128	> 128	1 (≈ 1.51 µM)		
